In PubChem BioAssay (NCI):
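Test compounds were applied to cells in 96-well plates for 48 hours at 5 doses. Here, GI50 denotes the concentration required for 50% inhibition of growth. TGI: concentration producing complete growth inhibition.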

What was measured:
Test in all cases: NCI tumour cell line growth inhibition, 48 h
ACHN renal = system: ACHN renal
SK-MEL-28 melanoma = system: SK-MEL-28 melanoma
A498 renal = system: A498 renal
RPMI-8226 leukemia = system: RPMI-8226 leukemia
M14 melanoma = system: M14 melanoma
NCI-H522 lung = system: NCI-H522 lung
COLO 205 colon = system: COLO 205 colon
SR leukemia = system: SR leukemia
MDA-MB-231 breast = system: MDA-MB-231 breast
MCF7 breast = system: MCF7 breast

## CCOC(=O)C1=C(C)N(C2OC(COC(C)=O)C(OC(C)=O)C(OC(C)=O)C2OC(C)=O)C(=O)NC1c1ccccc1 (configuration not stated)
ACHN renal
  TGI: > 100 µM
SK-MEL-28 melanoma
  TGI: > 100 µM
A498 renal
  TGI: > 100 µM
RPMI-8226 leukemia
  TGI: > 100 µM
M14 melanoma
  TGI: > 100 µM
NCI-H522 lung
  TGI: 63.4 µM
COLO 205 colon
  TGI: > 100 µM
SR leukemia
  TGI: > 100 µM

## CSS(C)(=O)=O
MDA-MB-231 breast
  TGI: > 100 µM
ACHN renal
  TGI: 56.9 µM
SK-MEL-28 melanoma
  TGI: 48 µM
A498 renal
  TGI: > 100 µM
RPMI-8226 leukemia
  TGI: 5.36 µM
MCF7 breast
  TGI: > 100 µM
M14 melanoma
  TGI: 74.7 µM
NCI-H522 lung
  TGI: 37.1 µM
COLO 205 colon
  TGI: 40.1 µM
SR leukemia
  TGI: 38.6 µM

## CCCCCCC(=O)c1ccc2ccccc2c1O
MDA-MB-231 breast
  TGI: > 100 µM
ACHN renal
  TGI: > 100 µM
SK-MEL-28 melanoma
  TGI: > 100 µM
A498 renal
  TGI: > 100 µM
RPMI-8226 leukemia
  TGI: > 100 µM
MCF7 breast
  TGI: > 100 µM
M14 melanoma
  TGI: > 100 µM
COLO 205 colon
  TGI: > 100 µM
SR leukemia
  TGI: > 100 µM

## COc1ccc(-c2c3c(nc4[nH]c(=S)[nH]c(=S)c24)CCCC3)cc1OC
MDA-MB-231 breast
  TGI: > 100 µM
ACHN renal
  TGI: > 100 µM
SK-MEL-28 melanoma
  TGI: 70.7 µM
RPMI-8226 leukemia
  TGI: > 100 µM
MCF7 breast
  TGI: > 100 µM
M14 melanoma
  TGI: > 100 µM
COLO 205 colon
  TGI: > 100 µM
SR leukemia
  TGI: > 100 µM

## CCCCn1c(C)c2c(c1C)C(=O)N(CCN1CCN(c3ccccc3Cl)CC1)C2=O
MDA-MB-231 breast
  TGI: > 100 µM
ACHN renal
  TGI: > 100 µM
A498 renal
  TGI: > 100 µM
RPMI-8226 leukemia
  TGI: 55.1 µM
MCF7 breast
  TGI: 99 µM
M14 melanoma
  TGI: 51.5 µM
NCI-H522 lung
  TGI: 78.7 µM
COLO 205 colon
  TGI: > 100 µM
SR leukemia
  TGI: 58.7 µM

## CCOC(=O)/C=C/c1c[nH]c(=O)[nH]c1=O
SK-MEL-28 melanoma
  TGI: > 75 µM
A498 renal
  TGI: > 75 µM
RPMI-8226 leukemia
  TGI: > 57 µM
MCF7 breast
  TGI: > 75 µM
NCI-H522 lung
  TGI: > 75 µM
COLO 205 colon
  TGI: > 75 µM

## c1ccc(N2N=C3N(c4ccccc4)C2N3c2ccccc2)cc1
MDA-MB-231 breast
  TGI: > 100 µM
ACHN renal
  TGI: > 100 µM
SK-MEL-28 melanoma
  TGI: 43.4 µM
A498 renal
  TGI: > 100 µM
RPMI-8226 leukemia
  TGI: 48.7 µM
MCF7 breast
  TGI: > 100 µM
M14 melanoma
  TGI: 47.6 µM
NCI-H522 lung
  TGI: 56.1 µM
COLO 205 colon
  TGI: 49.1 µM

## C=CCOC1OC(CS(=O)(=O)O)C(OC(C)=O)C(OC(C)=O)C1OC(C)=O (configuration not stated)
SK-MEL-28 melanoma
  TGI: > 100 µM
A498 renal
  TGI: > 100 µM
RPMI-8226 leukemia
  TGI: > 100 µM
MCF7 breast
  TGI: > 100 µM
M14 melanoma
  TGI: > 100 µM
COLO 205 colon
  TGI: > 100 µM
SR leukemia
  TGI: > 100 µM

## CC(=O)OCc1nnn2c1CCC2
ACHN renal
  TGI: > 100 µM
SK-MEL-28 melanoma
  TGI: > 100 µM
M14 melanoma
  TGI: > 100 µM
NCI-H522 lung
  TGI: > 100 µM
SR leukemia
  TGI: > 100 µM

## CCCCCCCCCC[N+](C)(C)C
MDA-MB-231 breast
  GI50: 1.59 µM
  TGI: 4.38 µM
ACHN renal
  GI50: 2.39 µM
  TGI: 12.5 µM
SK-MEL-28 melanoma
  GI50: 3.07 µM
  TGI: 12.2 µM
A498 renal
  GI50: 1.78 µM
  TGI: 7.81 µM
RPMI-8226 leukemia
  GI50: 0.604 µM
  TGI: 2.9 µM
MCF7 breast
  GI50: 2.45 µM
  TGI: 12.7 µM
M14 melanoma
  GI50: 1.74 µM
  TGI: 5.83 µM
NCI-H522 lung
  GI50: 1.7 µM
  TGI: 5.11 µM
COLO 205 colon
  GI50: 1.28 µM
  TGI: 2.59 µM
SR leukemia
  GI50: 1.12 µM
  TGI: 3.43 µM

## COc1c2occc2cc2ccc(=O)oc12
MDA-MB-231 breast
  TGI: > 100 µM
ACHN renal
  TGI: > 100 µM
SK-MEL-28 melanoma
  TGI: > 100 µM
A498 renal
  TGI: > 100 µM
RPMI-8226 leukemia
  TGI: > 100 µM
MCF7 breast
  TGI: > 100 µM
M14 melanoma
  TGI: > 100 µM
NCI-H522 lung
  GI50: > 100 µM
  TGI: > 100 µM
COLO 205 colon
  TGI: > 100 µM
SR leukemia
  TGI: > 100 µM

## COc1ccc(OCC(C)(C)O)cc1
SK-MEL-28 melanoma
  TGI: > 100 µM
A498 renal
  TGI: > 100 µM
RPMI-8226 leukemia
  TGI: > 100 µM
MCF7 breast
  TGI: > 84.1 µM
COLO 205 colon
  TGI: > 100 µM
